Like-named read-outs stand apart in the source and are kept apart here.
Tests used:
AML cells = assay: Cell proliferation assay, [3H]-Thymidine incorporation, AML cells; format: cell-based; conditions: Homo sapiens, 48 h, PI3Kδ selective inhibitor 10 μM, rapamycin 50 ng/ml
Method: Cell proliferation assays were conducted to determine whether PI3K inhibition contributes to AML cell viability. In most PI3K-positive samples tested, the mTOR pathway was activated as assessed by phosphorylation of P70S6K protein on Threonine 389. Thus, proliferation assays were also conducted to determine whether mTOR contributes to AML cell viability. Accordingly, proliferation assays were performed on AML cells with or without the following inhibitor compounds: LY294002, a PI3Kδ selective inhibitor, rapamycin, or a combination of the PI3Kδ selective inhibitor and rapamycin. Cell proliferation was determined by measuring DNA synthesis by [3H]-Thymidine incorporation. Comparative experiments were performed on CD34+ cord blood cells.
For AML cells (obtained as previously described in Example 1), BMMCs were cultured at 3×10^5/ml in alpha medium containing 5% fetal calf serum (FCS) without cytokines for 48 hours, with or without the following inhibitors: LY294002 at 25 μM, PI3Kδ selective inhibitor at 10 μM, rapamycin at 50 ng/ml, or an association of a PI3Kδ selective inhibitor and rapamycin, and incubated in 96-well plates in triplicate. [^3H]-Thymidine was added for a final 6 hour pulse, and the amount of radioactivity incorporated in cells was determined by trichloracetic acid (TCA) precipitation. […] DNA synthesis was measured by [^3H]-Thymidine incorporation after […].

[1] = tested on: myeloid and erythroid colony formation; assay: Methylcellulose clonogenic assay; format: cell-based; conditions: PI3Kδ selective inhibitor at 10 μM

| SMILES | inhibition at 10 µM (AML cells; PI3K-positive AML samples, read-out: inhibition of proliferation of leukemic cells) [%] | inhibition at 10 µM (AML cells; representative PI3K-negative AML cell sample, read-out: inhibition of proliferation of leukemic cells (mean values)) [%] | inhibition at 10 µM [1] [%] |
| --- | --- | --- | --- |
| CO[C@H]1C[C@@H]2CC[C@@H](C)[C@@](O)(O2)C(=O)C(=O)N2CCCC[C@H]2C(=O)O[C@H]([C@H](C)C[C@@H]2CC[C@@H](O)[C@H](OC)C2)CC(=O)[C@H](C)/C=C(\C)[C@@H](O)[C@@H](OC)C(=O)[C@H](C)C[C@H](C)/C=C/C=C/C=C/1C [rapamycin] | 64 | 29 |  |
| O=c1cc(N2CCOCC2)oc2c(-c3ccccc3)cccc12 [LY294002] |  |  | 95 |
